Experimental data taken from US7030123B2, “Indole derivatives with vascular damaging activity” (AstraZeneca AB, priority 2000, dated 2006).

Columns and labels:
[1] = Dark et al 1997 Cancer Research 57, 1829-1834; cited from earlier work
[2] = test system: colchicine binding site on tubulin (purified tubulin protein from bovine brain); experiment: Colchicine binding site competitive assay; details: dose of compound of 10 μM; relative to DMSO negative control
Method: (i) Colchicine Binding Site Competitive Assay Kit.
The ability of a ligand to bind specifically to the coichicine binding site on tubulin, an indicator of the vascular damaging activity, was assessed using a size exclusion chromatography assay kit from “Cytoskeleton” (1650 Fillmore St. #240, Denver, Colo. 80206, U.S.A.) Catalogue number of kit: BK023.
The following reagents were used: • tubulin buffer, to give 0.1 mM GTP, 0.5 mM MgCl2, 0.5 mM EGTA, 40 mM PIPES buffer at pH6.9 in the final reaction mix; • purified tubulin protein from bovine brain at 1 mg/ml in tubulin buffer; • 0.02 mM fluorescent coichicine in tubulin buffer [FITC (fluorescein isothiocyanate)-labelled]; • 2 mM colchicine in tubulin buffer; • 0.2 mM vinblastine in tubulin buffer; and • G-25 Sephadex™ Fine-particle size 34-138 μm.
The reaction was performed as follows: • 8 μl of test compound (dissolved in DMSO) was gently mixed with 150 μl of tubulin. This was then incubated at 37° C. for 30 minutes. […]
Chromatography was performed as follows, using chromatography columns filled with 3 mls of G-25 Sephadex™ Fine slurry. […] The fluorescence of the tubulin-containing fractions was detected on a spectrophotometer which excites at 485 nm and emits at 535 nm. […]
The degree of competition of colchicine binding by either unlabelled colchicine or test compound was calculated relative to the DMSO negative control.

[3] = test system: HUVECs (Human umbilical cord vein endothelial cells); experiment: HUVEC detachment assay; type: cell-based; details: for activity in the HUVEC cell detachment assay (detachment): dose of compound of 100 μM, 40 minutes, versus undosed control wells
Excerpt: (ii) HUVEC Detachment Assay
Compounds according to the invention are expected to be able to damage vasculature, such as tumour vasculature, that has been newly formed whilst leaving normal, mature vasculature unaffected. The identification of compounds which can selectively, and preferably potently, damage newly-formed vasculature is desirable and is the subject of the present invention. The ability of the compounds to act in this way may be assessed, for example, using the procedure set out below:
This assay examined the effects of compounds on the adherence of HUVECs (Human umbilical cord vein endothelial cells) to tissue culture plasticware.
HUVECs (supplied by TCS Biologicals Ltd, Buckingham, United Kingdom) were plated in 0.2% gelatin-coated 12 well tissue culture plates at a concentration of 3×10^4 cells per well in 1 ml TCS medium. After 24 hours, when the cells were at ˜30% confluency, they were dosed with a compound under test for 40 minutes at 37° C., 5% CO2. After this incubation the medium containing drug was pipetted off, and the cells were then gently washed in 2 mls of HBSS (Hanks' Balanced Salt Solution purchased from Life Technologies Ltd, Paisley UK; Catalogue # 24020-083) to remove any detached cells. The washing solution was then removed, and the adherent cells remaining were trypsinised using 300 μl of 1×Trypsin-EDTA solution (Life Technologies Ltd, Paisley, UK; Catalogue # 43500-019) at ambient temperature for 2 minutes. The trypsinised cells were then made up to 1 ml with TCS Biologicals medium, then centrifuged at 2000 rpm for 2 minutes. The cell pellet was then resuspended in a volume of 50 μl of TCS Biologicals medium. Total cell counts were obtained by counting the cells on a haemocytometer. The amount of cell detachment was calculated by comparing the number of cells remaining attached following treatment with the number in undosed control wells.

COc1ccc(/C=C\c2cc(OC)c(OC)c(OC)c2)cc1O [Combretastatin A4]
anti-vascular effects at doses below the MTD [1]: greater than 10 times less than the MTD

N#Cc1c(N)[nH]c2ccc(Sc3ccc(O)cc3)cc12 [Example 2, 5-(4-Hydroxyphenylsulphanyl)-2-amino-1H-indole-3-carbonitrile]
activity in the colchicine binding site competitive assay (competition) [2]: 36% | activity in the HUVEC cell detachment assay (detachment) [3]: 55% | melting point: 241 to 242 °C

COc1ccc(Sc2ccc3[nH]c(N)c(C#N)c3c2)cc1OC [Example 3, 5-(3,4-Dimethoxyphenylsulphanyl)-2-amino-1H-indole-3-carbonitrile]
melting point: 169 to 173 °C

Cc1cc2[nH]c(N)c(C#N)c2cc1F [Example 8, 6-methyl-5-fluoro-2-amino-1H-indole-3-carbonitrile]
activity in the colchicine binding site competitive assay (competition) [2]: 31% | activity in the HUVEC cell detachment assay (detachment) [3]: 34%

COc1ccc(Oc2ccc3[nH]c(N)c(C#N)c3c2)cc1 [Example 9, 5-(4-Methoxyphenoxy)-2-amino-1H-indole-3-carbonitrile]
melting point: 216 to 217 °C

COc1cc(Oc2ccc3[nH]c(N)c(C#N)c3c2)cc(OC)c1OC [Example 11, 5-(3,4,5-Trimethoxyphenoxy)-2-amino-1H-indole-3-carbonitrile]
melting point: 208 to 209 °C

CC(=O)O[C@H]1C(=O)[C@@]2(C)[C@H]([C@H](OC(=O)c3ccccc3)[C@]3(O)C[C@H](OC(=O)[C@H](O)[C@@H](NC(=O)c4ccccc4)c4ccccc4)C(C)=C1C3(C)C)[C@]1(OC(C)=O)CO[C@@H]1C[C@@H]2O [Taxol, reference compound]
cell detachment in the HUVEC detachment assay [3]: does not cause cell detachment

COc1cc2c(c(OC)c1OC)-c1ccc(OC)c(=O)cc1[C@@H](NC(C)=O)CC2 [colchicine]
doses at which vascular damaging activity is elicited, relative to the maximum tolerated dose (MTD) [1]: only elicit vascular damaging activity at doses approaching the maximum tolerated dose

CC[C@]1(O)C[C@H]2CN(CCc3c([nH]c4ccccc34)[C@@](C(=O)OC)(c3cc4c(cc3OC)N(C=O)[C@H]3[C@@](O)(C(=O)OC)[C@H](OC(C)=O)[C@]5(CC)C=CCN6CC[C@]43[C@@H]65)C2)C1 [vincristine]
doses at which vascular damaging activity is elicited, relative to the maximum tolerated dose (MTD) [1]: only elicit vascular damaging activity at doses approaching the maximum tolerated dose
